Experimental data: US5919765A, “Inhibitors of factor XA” (COR Therapeutics, Inc., priority 1995, dated 1999)
Numbered stars: 1 amine (or outer) side, 2 acyl side, 3 side chain; on linkers, the order of the positions; unused ones are H or OH. Square brackets hold non-standard residues; d marks the D form. Peptide text beside a SMILES is read from it. * marks the point of attachment. dCit = NC(=O)NCCC[C@@H](N)C(=O)O; Suc = O=C(CCC(=O)[*:2])[*:1]; Boc = CC(C)(C)OC(=O)*; Aib = CC(C)(N)C(=O)O

What was measured:
[1] = biological target: T1, thrombin (Homo sapiens, UniProt P00734); assay: Thrombin amidolytic assay (chromogenic substrate Chromozym TH); assay type: biochemical; settings: read-out: Inhibitory Activity (IC50) Thrombin
T1 construct: The formation of thrombin is the result of the proteolytic cleavage of its precursor prothrombin

[2] = tested on: Rabbits; assay: Cuticle Bleeding Time model in rabbits; assay type: in vivo, rabbit; settings: 1500 μg/kg+14.85 μg/kg/min
Procedure: In an ancillary study, a Cuticle Bleeding Time model was used to evaluate the effect of test compounds on bleeding time (BT) measurements in rabbits. The standardized protocol involved anesthesia and catheterization of rabbits as previously described in this Example 43. To measure BT, a toe nail was cut 5 mm from the base of the cuticle with a canine nail trimming device. Time until cessation of bleeding was recorded by wicking the blood on to BT blotting paper in 30 second intervals. Test compound was administered as a bolus followed by infusion regimen. Two BT measurements were obtained prior to administration of test compound and three BT measurements accomplished serially after initiation of steady state infusion of test compound. BT measurements were allowed to continue for up to 30 minutes at which time it was stopped with application of silver nitrate. Blood samples were obtained just prior to all BT measurements and processed for measurement of hematological and coagulation parameters.

[3] = tested on: Rabbits; assay: Rabbit deep vein thrombosis model; assay type: in vivo
Excerpt: Haemost. […] Rabbits were anesthetized with I.M. injections of Ketamine, Xylazine, and Acepromazine cocktail.

[4] = rabbit venous thrombosis model, bolus + infusion

SMILES | IC50 [1] | also measured
CC(C)(C)OC(=O)N[C@H](CCCNC(=N)N)C(=O)NC(C)(C)C(=O)N[C@H](C=O)CCCNC(=N)N [Boc--D--Arg--Aib--Arg--H, Boc-D-Arg-Aib-Arg--H] (Boc-[dR]-[Aib]-Arg-aldehyde) | > 500 µM | –
CC(C)(C)OC(=O)N[C@H](CCCN=C(N)N)C(=O)NCC(=O)N[C@H](C=O)CCCN=C(N)N [Boc--D--Arg--Gly--Arg--H, Boc-D-Arg-Gly-Arg--H] (Boc-[dR]-Gly-Arg-aldehyde) | – | changes in hematological parameters from pre to post administration [2]: no significant changes; effects on hematological parameters as compared to saline controls [3, 4]: no significant effects
CC(C)(C)OC(=O)N[C@H](CCCNC(=N)N)C(=O)NCC(=O)N[C@H](C=O)CCCNC(=N)N [Boc--D--Arg--Gly--Arg--H, Boc-D-Arg-Gly-Arg--H] (Boc-[dR]-Gly-Arg-aldehyde) | – | % Inhibition of Thrombosis ([3]; 200 + 1.98 μg/kg + μg/kg/min): 8.4%; % Inhibition of Thrombosis ([3]; 600 + 5.94 μg/kg + μg/kg/min): -6.6%; antithrombotic efficacy [3, 4]: demonstrated antithrombotic efficacy at the higher doses evaluated
CC(C)(C)OC(=O)N[C@H](CCCNC(N)=O)C(=O)NCC(=O)N[C@H](C=O)CCCNC(=N)N [Boc--D--Cit--Gly--Arg--H, Boc-D-Cit-Gly-Arg--H] (Boc-[dCit]-Gly-Arg-aldehyde) | > 100 µM | –
CC(C)(C)OC(=O)N[C@H](CCCCN)C(=O)NCC(=O)N[C@H](C=O)CCCNC(=N)N [Boc--D--Lys--Gly--Arg--H, Boc-D-Lys-Gly-Arg--H] (Boc-[dK]-Gly-Arg-aldehyde) | > 100 µM | –
CCOC(=O)N[C@H](CCCNC(=N)N)C(=O)NCC(=O)N[C@H](C=O)CCCNC(=N)N [EtOCO--D--Arg--Gly--Arg--H, EtO2 C-D-Arg-Gly-Arg--H] | > 100 µM | –
N=C(N)NCCC[C@@H](C=O)NC(=O)CNC(=O)[C@@H](CCCNC(=N)N)NC(=O)CCC(=O)O [HOOC(CH2)2 CO--D--Arg--Gly--Arg--H, Succinoyl-D-Arg-Gly-Arg--H] (Suc-[dR]-Gly-Arg-aldehyde) | > 100 µM | –
N=C(N)NCCC[C@@H](C=O)NC(=O)CNC(=O)[C@@H](CCCNC(=N)N)NC(=O)CC(=O)O [HOOCCH2 CO--D--Arg--Gly--Arg--H, Malonoyl-D-Arg-Gly-Arg--H] | > 100 µM | –
